Reference: patent US7897358B2, “Canine transient receptor potential V2 (cTRPV2) and methods of screening for TRPV2 channel modulators” (Janssen Pharmaceutica N.V., priority 2007, dated 2011)

Key:
canine TRPV2 (cTRPV2) = test: Calcium influx functional assay (FLIPR) in HEK293 cells transiently transfected with cTRPV2; assay type: cell-based; details: recombinant cTRPV2-expressing host cells
Description: The expression construct, cTRPV2/pcDNA3.1 was then transfected into human embryonic kidney cells (HEK293, ATCC CRL-1573) with FuGene6 transfection reagent (Roche, Indianapolis, Ind.), according to the vendor's protocol. TRPV2-expressing HEK293 cells were cultured in DMEM supplemented with 10% fetal bovine serum, 100 units/ml penicillin and 100 μg/ml streptomycin at 37° C. with 5% CO2, and were analyzed using a calcium influx assay 48-72 hr. post-transfection.
Transiently transfected cells were seeded in 384-well plates at a density of 1×10^4 cells/well and incubated overnight at 37° C. The following day, the cells were loaded with buffer and calcium dye, as recommended by the vendor (Molecular Devices, Sunnyvale, Calif.), in a final volume of 40 μl and incubated for 30 minutes at room temperature. The fluorescence intensity was measured by FLIPR before, during and after the addition of Δ^9-THC, which was added to the cells at a final concentration of 100 μM.

mouse TRPV2 = biological target: T1, mouse TRPV2 (Mus musculus, UniProt Q9WTR1); details: cited from earlier work
T1 sequence (Q9WTR1 1-756): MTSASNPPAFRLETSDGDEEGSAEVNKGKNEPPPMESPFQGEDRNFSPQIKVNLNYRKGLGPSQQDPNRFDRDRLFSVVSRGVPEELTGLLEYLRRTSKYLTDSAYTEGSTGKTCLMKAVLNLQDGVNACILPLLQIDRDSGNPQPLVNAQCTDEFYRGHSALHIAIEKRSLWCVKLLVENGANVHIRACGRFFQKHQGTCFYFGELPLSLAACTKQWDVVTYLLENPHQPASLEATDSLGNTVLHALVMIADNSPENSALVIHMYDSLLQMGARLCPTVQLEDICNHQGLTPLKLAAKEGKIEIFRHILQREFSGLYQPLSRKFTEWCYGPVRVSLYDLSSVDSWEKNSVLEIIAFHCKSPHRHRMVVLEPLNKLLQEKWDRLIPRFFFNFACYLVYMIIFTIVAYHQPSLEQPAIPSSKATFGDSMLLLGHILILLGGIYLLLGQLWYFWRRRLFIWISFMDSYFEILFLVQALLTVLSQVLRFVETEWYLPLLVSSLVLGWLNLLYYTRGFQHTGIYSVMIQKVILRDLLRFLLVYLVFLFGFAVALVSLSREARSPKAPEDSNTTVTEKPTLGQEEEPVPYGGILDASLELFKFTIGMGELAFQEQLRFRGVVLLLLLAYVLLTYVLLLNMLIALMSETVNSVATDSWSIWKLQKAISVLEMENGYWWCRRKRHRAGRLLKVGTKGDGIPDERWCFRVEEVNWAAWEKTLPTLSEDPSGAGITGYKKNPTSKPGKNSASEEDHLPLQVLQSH

human TRPV2 = biological target: T2, human TRPV2 (Homo sapiens, UniProt Q9Y5S1); details: cited from earlier work
T2 sequence (Q9Y5S1 1-764): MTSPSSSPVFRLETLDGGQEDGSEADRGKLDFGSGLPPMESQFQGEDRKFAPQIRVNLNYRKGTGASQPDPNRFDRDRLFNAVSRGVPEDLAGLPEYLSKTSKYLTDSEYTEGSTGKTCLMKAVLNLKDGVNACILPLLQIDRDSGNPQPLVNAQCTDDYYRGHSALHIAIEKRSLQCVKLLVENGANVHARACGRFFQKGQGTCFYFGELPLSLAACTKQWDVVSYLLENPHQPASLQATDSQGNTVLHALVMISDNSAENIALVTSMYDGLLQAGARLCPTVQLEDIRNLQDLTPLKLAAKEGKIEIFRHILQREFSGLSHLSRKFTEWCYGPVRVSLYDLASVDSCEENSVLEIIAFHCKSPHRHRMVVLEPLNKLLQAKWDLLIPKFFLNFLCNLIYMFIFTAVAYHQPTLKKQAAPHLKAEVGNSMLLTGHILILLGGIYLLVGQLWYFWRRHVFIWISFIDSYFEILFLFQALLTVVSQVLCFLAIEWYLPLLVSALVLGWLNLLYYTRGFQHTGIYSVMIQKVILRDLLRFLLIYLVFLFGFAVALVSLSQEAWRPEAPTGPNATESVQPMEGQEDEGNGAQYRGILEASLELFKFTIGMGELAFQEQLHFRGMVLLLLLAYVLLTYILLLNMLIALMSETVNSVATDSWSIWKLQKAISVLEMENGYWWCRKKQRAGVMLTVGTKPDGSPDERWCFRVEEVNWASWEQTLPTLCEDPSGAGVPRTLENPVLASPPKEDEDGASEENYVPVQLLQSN

rat TRPV2 = biological target: T3, rat TRPV2 (Rattus norvegicus, UniProt Q9WUD2); details: cited from earlier work
T3 sequence (Q9WUD2 1-761): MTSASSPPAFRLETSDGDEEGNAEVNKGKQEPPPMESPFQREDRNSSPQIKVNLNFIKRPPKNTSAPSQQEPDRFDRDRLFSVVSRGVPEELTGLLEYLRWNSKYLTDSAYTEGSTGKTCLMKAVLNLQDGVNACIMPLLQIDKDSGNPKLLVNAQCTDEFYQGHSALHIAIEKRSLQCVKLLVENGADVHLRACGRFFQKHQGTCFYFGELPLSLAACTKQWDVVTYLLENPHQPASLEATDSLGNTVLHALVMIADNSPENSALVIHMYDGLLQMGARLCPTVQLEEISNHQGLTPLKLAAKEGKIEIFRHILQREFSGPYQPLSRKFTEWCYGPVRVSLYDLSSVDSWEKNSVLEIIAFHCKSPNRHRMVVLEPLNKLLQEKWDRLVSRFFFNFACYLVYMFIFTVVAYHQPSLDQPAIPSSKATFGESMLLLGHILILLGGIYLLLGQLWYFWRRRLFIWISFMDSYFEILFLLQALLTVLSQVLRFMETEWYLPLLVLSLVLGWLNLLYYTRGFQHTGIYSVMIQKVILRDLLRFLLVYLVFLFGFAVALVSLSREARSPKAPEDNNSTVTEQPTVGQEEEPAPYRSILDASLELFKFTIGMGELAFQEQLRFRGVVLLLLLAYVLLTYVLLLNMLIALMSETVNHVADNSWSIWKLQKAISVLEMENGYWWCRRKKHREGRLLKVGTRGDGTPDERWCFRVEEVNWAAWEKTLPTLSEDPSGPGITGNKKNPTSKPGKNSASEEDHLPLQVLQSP

SMILES: CCCCCc1cc(O)c2c(c1)OC(C)(C)[C@@H]1CCC(C)=C[C@@H]21 [Δ^9-THC, Δ^9-tetrahydrocannabinol]
- response of the recombinant TRPV2 cell system to agonist (canine TRPV2 (cTRPV2)): responded to Δ^9-THC in a dose-dependent manner
- activation of mouse TRPV2 (selective agonist) (mouse TRPV2): activate
- activation of human TRPV2 (selective agonist) (human TRPV2): activate
- activation of rat TRPV2 (selective agonist) (rat TRPV2): activate
